Test results as given in patent publication US9474759B2 (priority 2011, dated 2016).

Tests used:
[1] = tested on: EV71; test: Cell-based screening, EV71 in Vero cells (Example 2); set-up: species or system enterovirus 71; settings: Enterovirus A, EV71; Vero cells; read-out: Inhibition [ED50 (μM)] against various viruses: Picornavirus, EV71
Protocol: (§1) 3. Cell-based screening of inhibitor. The effects of each inhibitor on the viral replication were examined. The list of viruses and corresponding cell lines are listed above in Table 2. Briefly, confluent cells were inoculated with virus at a MOI of 5 or 0.05 for 1 hr, and medium was replaced with medium containing mock-medium or each compound (up to 100 μM). The virus infected cells were further incubated for up to 96 hrs, and the replication of virus was measured by TCID50 assay with the 10-fold dilution of each sample used for virus titration (Reed and Muench, 1938). In some viruses, the virus protein and genome expression levels were detected by Western blot analysis and real-time qRT-PCR, respectively, as described below. The IC50s of the compounds were calculated.

[2] = tested on: HAV; test: Cell-based screening, HAV (Example 2); set-up: species or system hepatitis A virus; settings: Picornaviridae; read-out: Inhibition [ED50 (μM)] against various viruses: Picornavirus, HAV
Protocol: as §1

[3] = tested on: norovirus (NV replicon-harboring HG23 cells); test: NV replicon-harboring cells (HG23), NV genome levels by qRT-PCR (Example 1); type: cell-based, Norwalk virus; settings: read-out: ED50, effective dose that inhibits 50% of norovirus replication, NV genome levels at 24 hrs post-treatment
[4] = biological target: HAV 3Cpro (Human hepatitis A virus genotype IB, UniProt P08617); test: Optimized FRET protease assay, HAV 3Cpro (Example 3); type: biochemical
Sequence of HAV 3Cpro (P08617 1520-1738): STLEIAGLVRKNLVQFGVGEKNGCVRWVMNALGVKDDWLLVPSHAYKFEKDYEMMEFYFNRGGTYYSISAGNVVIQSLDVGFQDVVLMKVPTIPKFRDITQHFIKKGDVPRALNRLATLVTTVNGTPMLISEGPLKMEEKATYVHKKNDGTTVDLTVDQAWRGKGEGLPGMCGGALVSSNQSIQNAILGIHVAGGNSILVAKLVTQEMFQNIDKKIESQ
Protocol: Fluorogenic substrates with Edans and Dabcyl as a donor and quencher pair were purchased from Bachem (coronavirus substrate) or synthesized by GenScript. The viral proteases and the corresponding fluorogenic substrates are listed in Table 5, along with their sources.
Stock solutions (10 mM) of the substrates and the compounds were prepared in dimethyl sulfoxide (DMSO) and diluted in assay buffer. The assay buffer comprised 20 mM HEPES buffer containing NaCl (0 mM for HAV 3Cpro and 200 mM for all other proteases), 0.4 mM EDTA, Glycerol (60% for NV and MD145 3CLpro and 30% for TGEV and 229E 3CLpro), and 6 mM (NV and MD145 3CLpro and HAV 3Cpro)_or 4 mM (all other proteases) dithiothreitol (DTT) at pH 6 (coronavirus 3CLpro) or 8 (all other proteases). Each protease was mixed with serial dilutions of each compound or with DMSO in 25 μl of assay buffer and incubated at 37° C. for 30 min, followed by the addition of 25 μl of assay buffer containing substrate. Fluorescence readings were obtained using an excitation wavelength of 360 nm and an emission wavelength of 460 nm on a fluorescence microplate reader (FLx800; Biotek, Winooski, Vt.) at 1 h following the addition of substrate. The relative fluorescence units (RFU) were determined by subtracting background values (substrate-containing well without protease) from the raw fluorescence values. […]

[5] = biological target: TGEV 3CLpro (full-length, 6 His, recombinant) (Porcine transmissible gastroenteritis coronavirus strain Purdue, UniProt P0C6V2); test: biochemical; set-up: species or system transmissible gastroenteritis virus (strain Miller)
Sequence of TGEV 3CLpro (full-length, 6 His, recombinant) (P0C6V2 2879-3180): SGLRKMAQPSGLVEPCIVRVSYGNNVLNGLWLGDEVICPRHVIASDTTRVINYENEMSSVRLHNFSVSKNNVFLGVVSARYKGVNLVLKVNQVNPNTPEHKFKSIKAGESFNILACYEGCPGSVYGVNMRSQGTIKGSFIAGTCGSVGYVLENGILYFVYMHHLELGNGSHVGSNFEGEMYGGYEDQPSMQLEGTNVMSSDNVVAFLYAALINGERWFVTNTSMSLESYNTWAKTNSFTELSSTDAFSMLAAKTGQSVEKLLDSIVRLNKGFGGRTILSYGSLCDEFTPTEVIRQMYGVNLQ

[6] = tested on: TGEV; test: Cell-based screening, TGEV in ST cells (Example 2); set-up: species or system transmissible gastroenteritis virus; settings: Alphacoronavirus 1; ST cells; read-out: Inhibition [ED50 (μM)] against various viruses: Coronavirus, TGEV
Protocol: as §1

[7] = tested on: HG23 cells; settings: human
[8] = biological target: TGEV 3CL protease (Porcine transmissible gastroenteritis coronavirus, UniProt P0C6Y5); test: FRET-based protease assay, TGEV 3CL protease (Example 5); type: biochemical, TGEV Miller strain
Sequence of TGEV 3CL protease (P0C6Y5 2879-3180): as the sequence (P0C6V2 2879-3180) above
Source text: The 3CL proteases are highly conserved among all coronaviruses, and feline coronavirus 3CL protease is closely related TGEV 3CL protease. Therefore we cloned and expressed the TGEV 3CL protease for the FRET assay. The cDNA encoding the full length of 3CL protease of TGEV Miller strain was amplified with RT-PCR as previously described. The primers contained the nucleotide sequence of the 3CL protease for cloning as well as the nucleotides for 6 Histidine in the forward primer. The amplified product was subcloned to pET-28a(+) vector (GenScript, Piscataway, N.J.). The expression and purification of the 3CL protease was performed with a standard method described previously by our lab (Chang et al., 2012b; Takahashi et al., 2012; Tiew et al., 2011).
Our protease inhibitor compounds and commercial cathepsin inhibitors CA074-Me and E64d were prepared in DMSO as stock solutions (10 mM), and further diluted in assay buffer consisting of 20 mM HEPES, 0.4 mM EDTA, 30% glycerol, 120 mM NaCl, and 4 mM DTT at pH 6. […] TGEV 3CL protease at a final concentration of 0.1˜0.2 μM and the substrate (Dabcyl-[…]-Edans; SEQ ID NO:2) at 10 μM were used for the studies. The substrate was purchased from Bachem Americas, Inc (Torrance, Calif.). Compounds at various concentrations (0˜50 μM) were pre-incubated with TGEV 3CL protease in 25 μl for 30 min at 37° C., and the same volume of substrate was added to a 96-well black plate. The mixtures were then incubated at 37° C. for 60 min, and fluorescence readings were obtained on a microplate reader at 360 nm excitation and 480 nm emission wavelengths. The relative fluorescence units (RFU) were calculated by subtracting background (substrate control well without protease) from the fluorescence readings. The dose-dependent FRET inhibition curves were fitted with variable slope (four parameters) using GraphPad Prism software (La Jolla, Calif.) in order to determine the compound concentration that gives a half-maximum response (IC50).

[9] = tested on: Norwalk virus (HG23 cells); test: microbe, parasite or virus in culture; type: cell-based; settings: HG23, read-out: Inhibition [ED50 (μM)] against various viruses: Calicivirus, HG23 cells
[10] = tested on: HAV; test: Cell culture system, HAV replication in FRhK-4 cells (Example 3); type: cell-based, hepatitis A virus
[11] = biological target: NV 3CLpro (codon-optimized, full-length, N-terminal 6 His, recombinant) (Norovirus, UniProt Q83883); type: biochemical, Norwalk virus (human norovirus GI)
Sequence of NV 3CLpro (codon-optimized, full-length, N-terminal 6 His, recombinant) (Q83883 1101-1281): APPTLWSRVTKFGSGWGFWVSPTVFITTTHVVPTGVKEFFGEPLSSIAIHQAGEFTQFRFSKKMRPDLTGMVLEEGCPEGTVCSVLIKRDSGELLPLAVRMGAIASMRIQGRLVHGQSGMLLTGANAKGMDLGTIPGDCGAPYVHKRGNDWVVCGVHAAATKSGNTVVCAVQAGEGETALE

[12] = biological target: MD145 3CLpro (codon-optimized, full-length, N-terminal 6 His, recombinant) (Lordsdale virus, UniProt P54634); test: biochemical; set-up: species or system norovirus strain MD145 (human norovirus GII)
Sequence of MD145 3CLpro (codon-optimized, full-length, N-terminal 6 His, recombinant) (P54634 1009-1189): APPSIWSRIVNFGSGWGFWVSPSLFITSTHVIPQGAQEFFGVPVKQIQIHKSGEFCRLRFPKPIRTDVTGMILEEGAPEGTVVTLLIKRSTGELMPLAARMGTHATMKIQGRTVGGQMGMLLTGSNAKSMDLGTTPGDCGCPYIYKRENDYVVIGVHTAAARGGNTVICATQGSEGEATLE

[13] = PK and oral bioavailability studies in rats; settings: 20 mg/Kg (body weight), IV or PO

With `CC(C)C[C@H](NC(=O)OCc1ccccc1)C(=O)N[C@H](C=O)C[C@@H]1CCNC1=O` [GC373] the EC50 [1] was 11 µM, the EC50 [2] was > 100 µM and the EC50 [3] was 2100 nM. The “inhibitory effect on HAV 3Cpro (in words)” value [4] was “all viral proteases except HAV 3Cpro”, the IC50 [5] was 990 ± 120 nM and the EC50 [6] was 0.3 µM. The “TD50, median toxic dose” value [7] was > 320 µM, the IC50 ([8]; TGEV 3CL protease, read-out: IC50 against 3CL protease in the FRET assay) was 980 nM and the “inhibition of the activity of TGEV 3CL protease (in words)” value ([8]; compound at 50 μM final concentration) was “remarkably inhibited”. For the same molecule, the EC50 [9] was 2.1 µM, the “effectiveness against the replication of HAV in cells (in words)” value [10] was “no or weak effectiveness” and the IC50 [11] was 640 nM. For the same molecule, the IC50 [12] was 1180 nM and the “oral bioavailability, % F” value [13] was 3 % F.
